Earlier results as cited in patent US10391330B2, “Non-invasive systems and methods for in-situ photobiomodulation” (priority 2008, dated 2019).

Tests used:
T cells = details: combination with UVA radiation
[1] = clinical use

Row | Structure (SMILES) | apoptosis of the treated T cells (T cells) | duration of skin photosensitivity [1]
1 | COc1c2occc2cc2ccc(=O)oc12 [Compound 8-MOP, 8-methoxypsoralen] | causes apoptosis | –
2 | Oc1cccc(-c2c3nc(c(-c4cccc(O)c4)c4ccc([nH]4)c(-c4cccc(O)c4)c4nc(c(-c5cccc(O)c5)c5ccc2[nH]5)CC4)C=C3)c1 [Foscan, Tetra (m-hydroxyphenyl) chlorin] | – | approximately 2 weeks
